For data set [1] the following is noted: 14-membered ring.
For data set [2], the target named is GST-hASK1 (Homo sapiens (Human), UniProt Q99683). The data set can be described thus: ASK1 TR-FRET assay. In kind it is biochemical. To be noted: 5 nM GST-hASK1, 100 μM ATP, 2 μM STK Substrate 3. As to the method: The protein kinase activity of 5 nM GST-hASK1(Life Technologies PV4011) was assayed with 100 μM ATP and 2 μM of HTRF biotinylated STK Substrate 3 (CisBio Kit 62ST3PEJ), at ambient temperature in 25 mM Hepes, pH 7.5, 50 mM NaCl, 10 mM MgCl2, 0.02% Brij-35, 1 mM DTT, and 1% DMSO.
Sequence of GST-hASK1 (Q99683 649-946): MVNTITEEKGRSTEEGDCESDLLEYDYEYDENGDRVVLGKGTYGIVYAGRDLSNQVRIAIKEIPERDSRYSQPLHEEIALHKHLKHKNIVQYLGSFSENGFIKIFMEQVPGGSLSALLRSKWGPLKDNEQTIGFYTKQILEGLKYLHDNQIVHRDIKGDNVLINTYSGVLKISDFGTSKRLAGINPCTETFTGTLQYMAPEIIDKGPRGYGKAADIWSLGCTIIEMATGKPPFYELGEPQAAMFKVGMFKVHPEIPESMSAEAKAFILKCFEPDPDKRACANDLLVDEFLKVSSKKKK
After a 10 minute pre-incubation, ASK1 protein kinase activity was initiated by addition of 10 μL of 300 μM ATP.

The target in data set [3] is ASK1/MAP3K5 (Homo sapiens (Human), UniProt Q99683). Description: ASK1/MAP3K5 assay by Reaction Biology Corp. It is filed as biochemical. To be noted: 20 μM myelin basic protein (MBP), 10 μM ATP. As to the method:
ASK1/MAP3K5 was used as the protein kinase and 20 μM of myelin basic protein (MBP) and 10 μM ATP were used as the substrate.

For data set [4], the target named is ASK1 T838 auto phosphorylation in HEK-293T cells (Homo sapiens (Human), UniProt Q99683). The data set can be described thus: ASK1 (AUTO PHOS T838) assay, MSD format. In kind it is cell-based. To be noted: HEK 293T cells transfected with ASK1-V5 full length plasmid, compounds 1 hr at 37° C.; read-out: IC50.
Sequence of ASK1 T838 auto phosphorylation in HEK-293T cells (Q99683 whole entry): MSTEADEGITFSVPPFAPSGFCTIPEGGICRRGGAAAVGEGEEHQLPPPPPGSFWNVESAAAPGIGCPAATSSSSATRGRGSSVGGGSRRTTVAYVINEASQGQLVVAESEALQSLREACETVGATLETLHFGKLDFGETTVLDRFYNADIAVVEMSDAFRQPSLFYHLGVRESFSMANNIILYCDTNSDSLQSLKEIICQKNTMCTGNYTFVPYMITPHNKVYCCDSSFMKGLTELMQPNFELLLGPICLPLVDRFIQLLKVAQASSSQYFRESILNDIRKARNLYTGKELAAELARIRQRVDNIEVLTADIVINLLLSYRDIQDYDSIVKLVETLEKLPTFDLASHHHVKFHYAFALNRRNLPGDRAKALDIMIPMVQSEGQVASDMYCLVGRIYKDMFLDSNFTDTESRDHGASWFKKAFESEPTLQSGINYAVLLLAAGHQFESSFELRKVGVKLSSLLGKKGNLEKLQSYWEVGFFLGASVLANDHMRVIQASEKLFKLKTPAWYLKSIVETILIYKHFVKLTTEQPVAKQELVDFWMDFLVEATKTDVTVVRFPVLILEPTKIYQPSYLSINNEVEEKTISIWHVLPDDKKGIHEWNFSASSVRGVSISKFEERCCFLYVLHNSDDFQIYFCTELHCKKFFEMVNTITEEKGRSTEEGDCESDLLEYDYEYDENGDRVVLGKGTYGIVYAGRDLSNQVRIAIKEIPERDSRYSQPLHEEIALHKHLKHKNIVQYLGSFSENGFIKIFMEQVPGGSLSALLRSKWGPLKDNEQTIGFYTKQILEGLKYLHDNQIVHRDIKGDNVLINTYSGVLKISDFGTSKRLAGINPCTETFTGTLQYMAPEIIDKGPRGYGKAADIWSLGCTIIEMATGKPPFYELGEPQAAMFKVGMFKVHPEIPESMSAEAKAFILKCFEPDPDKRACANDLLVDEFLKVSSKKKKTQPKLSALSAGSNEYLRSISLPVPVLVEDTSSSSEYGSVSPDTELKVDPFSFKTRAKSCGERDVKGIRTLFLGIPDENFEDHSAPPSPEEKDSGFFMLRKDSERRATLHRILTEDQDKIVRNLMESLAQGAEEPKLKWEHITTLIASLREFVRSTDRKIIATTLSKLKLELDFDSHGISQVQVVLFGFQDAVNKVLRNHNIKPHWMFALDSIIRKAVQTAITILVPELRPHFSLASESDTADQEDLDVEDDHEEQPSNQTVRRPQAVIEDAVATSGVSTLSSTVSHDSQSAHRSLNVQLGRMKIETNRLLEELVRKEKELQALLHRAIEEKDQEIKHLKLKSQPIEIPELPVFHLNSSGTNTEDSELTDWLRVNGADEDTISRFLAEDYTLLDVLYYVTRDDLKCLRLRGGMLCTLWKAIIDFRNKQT
The conditions of data set [5]: amide bond, 14-membered ring, T3P/Et3N.

SMILES strings stand for the structures. Several values for one entry are separate records, joined by “and”; a condition that tells them apart may be missing. Equal values may be shown once. Read-outs that look alike come from different tables or passages of the source.

Sequence of ASK1/MAP3K5 (Q99683 whole entry): as above

For the molecule `O=C1Nc2cccc(n2)-c2nncn2CCCCOc2cc(C(F)(F)F)c(Cl)cc21`, the ring closure, yield after HPLC in data set [1] (from Nc1cccc(-c2nncn2CCCCOc2cc(C(F)(F)F)c(Br)cc2C(=O)O)n1, amide bond, T3P/Et3N, Et3N/EtOAc, 18.0 mM, 50.0 °C, 4.0 h) stood at 40%. As for `CC1CCOc2cc(F)c(Cl)cc2C(=O)Nc2cccc(n2)-c2nncn2C1` (racemic), the ring closure, isolated yield (from CC(CCOc1cc(F)c(Br)cc1C(=O)O)Cn1cnnc1-c1cccc(N)n1, amide bond, 14-membered ring, T3P/Et3N, Et3N/EtOAc, 43.0 mM, 70.0 °C, 2.0 h) turned out to be 23%. For the molecule `CC(C)(C)OC(=O)N1C(=O)c2cc(Br)c(F)cc2OCCC=CCn2cnnc2-c2cccc1n2`, under “from C=CCCOc1cc(F)c(Br)cc1C(=O)N(C(=O)OC(C)(C)C)c1cccc(-c2nncn2CC=C)n1, rcm bond, 15-membered ring, Hoveyda-Grubbs I (20 mol%), toluene, 1.66 mM, 110.0 °C, 17.0 h”, the ring closure, isolated yield was 31%.

Take `Cc1ncn(-c2ccc3c(c2)C(=O)Nc2cccc(n2)-c2nncn2CCCCO3)c1C` [Example 42, 5^5-(4,5-Dimethyl-1H-imidazol-1-yl)-1^4H-6-oxa-3-aza-2(2,6)-pyridina-1(3,4)-triazola-5(1,2)-benzenacyclodecaphan-4-one]: the IC50 in data set [2] was below 100 nM; in data set [3], below 100 nM; in data set [4] it was below 1000 nM. `O=C1Nc2cccc(n2)-c2nncn2CCCCOc2cc(Cl)c(F)cc21` gave a ring closure, isolated yield (from Nc1cccc(-c2nncn2CCCCOc2cc(Br)c(F)cc2C(=O)O)n1, amide bond, 14-membered ring, T3P/Et3N, Et3N/EtOAc, 110.0 °C, 0.05 h, 2 steps) of 55%. With `Cc1cn(-c2ccc3c(c2)C(=O)Nc2cccc(n2)-c2nncn2[C@@H](C)CCCO3)cn1` [Example 94, (S)-10-Methyl-5^5-(4-methyl-1H-imidazol-1-yl)-1^4H-6-oxa-3-aza-2(2,6)-pyridina-1(3,4)-triazola-5(1,2)-benzenacyclodecaphan-4-one], the half-inhibitory concentration (IC50) in data set [2] is below 100 nM; in data set [3] it was below 100 nM; in data set [4] it was below 1000 nM. For the molecule `O=C1Nc2cccc(n2)-c2nncn2CCCCOc2ccc(C3CCOC3)cc21` (racemic) [Example 15, rac-5^5-(Tetrahydrofuran-3-yl)-1^4H-6-oxa-3-aza-2(2,6)-pyridina-1(3,4)-triazola-5(1,2)-benzenacyclodecaphan-4-one], the values for the IC50 in data set [2], in data set [3] and in data set [4] were below 100 nM, below 100 nM and below 1000 nM, respectively. For the molecule `O=C1Nc2cccc(n2)-c2nncn2CCCCOc2ccc(-n3cnc(C4CC4)c3)cc21` [Example 22, 5^5-(4-Cyclopropyl-1H-imidazol-1-yl)-1^4H-6-oxa-3-aza-2(2,6)-pyridina-1(3,4)-triazola-5(1,2)-benzenacyclodecaphan-4-one], the IC50 is below 100 nM in data set [2], below 100 nM in data set [3] and below 1000 nM in data set [4]. Regarding `Cc1cn(-c2ccc3c(c2)C(=O)Nc2cccc(n2)-c2nncn2[C@H](C)CCCO3)cn1` [Example 93, (R)-10-Methyl-5^5-(4-methyl-1H-imidazol-1-yl)-1^4H-6-oxa-3-aza-2(2,6)-pyridina-1(3,4)-triazola-5(1,2)-benzenacyclodecaphan-4-one], the IC50 in data set [2] was below 100 nM; in data set [3] it was below 100 nM; in data set [4], below 1000 nM. With `O=C1Nc2cccc(n2)-c2nncn2CCCCOc2ccc(Cl)cc21`, where the note is “from Nc1cccc(-c2nncn2CCCCOc2ccc(Br)cc2C(=O)O)n1, amide bond, 14-membered ring, T3P/Et3N, Et3N/EtOAc, 76.0 mM, 80.0 °C, 4.0 h”, the ring closure, isolated yield was 41%. In the case of `CC(C)(C)OC(=O)N1C(=O)c2ccc(C(F)(F)F)cc2OCC=CCn2cnnc2-c2cccc1n2`, the ring closure, yield after HPLC in data set [1] (from C=CCOc1cc(C(F)(F)F)ccc1C(=O)N(C(=O)OC(C)(C)C)c1cccc(-c2nncn2CC=C)n1, rcm bond, Hoveyda-Grubbs I (20 mol%), toluene, 1.9 mM, 110.0 °C, 17.0 h) was 9% and 13%. `O=C1Nc2cccc(n2)-c2nncn2CCCCOc2cc(Cl)ccc21` displayed a ring closure, isolated yield (from Nc1cccc(-c2nncn2CCCCOc2cc(Br)ccc2C(=O)O)n1, amide bond, 14-membered ring, T3P/Et3N, Et3N/EtOAc, 116.0 mM, 50.0 °C, 3.0 h) of 27%. Take `Cc1nn(C)cc1-c1ccc2c(c1)C(=O)Nc1cccc(n1)-c1nncn1CCCCO2` [Example 32, 5^5-(1,3-Dimethyl-1H-pyrazol-4-yl)-1^4H-6-oxa-3-aza-2(2,6)-pyridina-1(3,4)-triazola-5(1,2)-benzenacyclodecaphan-4-one]: the IC50 in data set [2] was below 100 nM; in data set [3], below 100 nM; in data set [4] it was below 1000 nM. Turning to `CC1CCCOc2cc(Cl)ccc2C(=O)Nc2cccc(n2)-c2nncn21` (racemic), in data set [5] (from CC(CCCOc1cc(Br)ccc1C(=O)O)n1cnnc1-c1cccc(N)n1, EtOAc/Et3N, 50.0 °C, 12.0 h), the ring closure, crude yield came out at 37%.

As for `O=C1Nc2cccc(n2)-c2nncn2CCCCOc2ccc(N3CC4CC(C3)O4)cc21` [Example 6, 5^5-(6-Oxa-3-azabicyclo[3.1.1]heptan-3-yl)-1^4H-6-oxa-3-aza-2(2,6)-pyridina-1(3,4)-triazola-5(1,2)-benzenacyclodecaphan-4-one], the half-maximal inhibitory concentration (IC50) was below 100 nM in data set [2], below 100 nM in data set [3] and below 1000 nM in data set [4]. Turning to `O=C1Nc2cccc(n2)-c2nncn2CCCCOc2ccc(N3CCC(F)(F)C3)cc21` [Example 10, 5^5-(3,3-Difluoropyrrolidin-1-yl)-1^4H-6-oxa-3-aza-2(2,6)-pyridina-1(3,4)-triazola-5(1,2)-benzenacyclodecaphan-4-one], the IC50 in data set [2] is below 100 nM; in data set [3] it was below 100 nM; in data set [4], below 1000 nM. As for `O=C1Nc2cccc(n2)-c2nncn2CCCCOc2cc(F)c(Cl)cc21`, under “from Nc1cccc(-c2nncn2CCCCOc2cc(F)c(Br)cc2C(=O)O)n1, amide bond, 14-membered ring, T3P/Et3N, Et3N/EtOAc, 117.0 mM, 80.0 °C, 17.0 h”, the ring closure, isolated yield turned out to be 35%. Molecule `CC1CCCn2cnnc2-c2cccc(n2)NC(=O)c2cc(Cl)ccc2O1` (racemic) had a ring closure, crude yield in data set [5] (from CC(CCCn1cnnc1-c1cccc(N)n1)Oc1ccc(Br)cc1C(=O)O, Et3N/EtOAc, 137.0 mM, 70.0 °C, 3.0 h) of 57%. Consider `O=C1Nc2cccc(n2)-c2nncn2CCCCOc2ccc(N3CCCC(F)(F)C3)cc21` [Example 11, 5^5-(3,3-Difluoropiperidin-1-yl)-1^4H-6-oxa-3-aza-2(2,6)-pyridina-1(3,4)-triazola-5(1,2)-benzenacyclodecaphan-4-one], for which the IC50 in data set [2] is below 100 nM; in data set [3] it was below 100 nM; in data set [4], below 1000 nM. In the case of `O=C1Nc2cccc(n2)-c2nncn2CC=CCOc2cc(C(F)(F)F)ccc21`, the ring closure, isolated yield (from C=CCOc1cc(C(F)(F)F)ccc1C(=O)Nc1cccc(-c2nncn2CC=C)n1, rcm bond, 14-membered ring, Hoveyda-Grubbs II (10 mol%), DCE, 2.64 mM, 80.0 °C, 3.0 h) was found to be 41%.

For the origin of these results see patent US11168095B2, “ASK1 inhibiting agents” (BIOGEN MA INC., priority 2017, dated 2021).
